The values below come from US20210038577A1, “THIOREDOXIN REDUCTASE INHIBITORS FOR USE IN THE TREATMENT OF CANCER” (Cinda Pharma AB, priority 2018, published 2021).

SMILES strings stand for the structures.

One data set has as its system MDA-MB-453 cells. Description: CellQuanti-Blue cell viability assay, MDA-MB-453. The class given is cell-based. The procedure:
(§1) Cell viability was then assessed using the CellQuanti assay. Relative cell viability was determined using DMSO only and blank controls.
(§2) Cells were plated at 2000 cells/well into 96-well plates in media containing 10% FBS. […] CellQuanti-Blue cell viability reagent was added to each well and the plates were subsequently incubated at 37° C. for 3 hours. Viability was determined fluorometrically using an Enspire plate reader […] excitation: 530 nm, emission: 590 nm. Viability was normalized to DMSO controls and blank wells with media.

The test system of a further data set is MDA-MB-231 cells. The experiment in a line: CellQuanti-Blue cell viability assay, MDA-MB-231. The format is cell-based, human. The procedure:
as §1, §2

Data set [1] relates to Tregs in TM00098 patient-derived xenografts. The experiment in a line: Tumor infiltrated Treg levels by flow cytometry, TM00098 PDX in Hu-CD34-NSG mice. The class given is in vivo. The following applies: day 41, both donors, versus vehicle / other treatment. The procedure: Female NSG mice were implanted with human CD34+ hematopoietic stem cells from multiple donors and the level of human CD45+ cells were measured in the peripheral blood 12 weeks post engraftment. Mice with >25% human CD45+ cells in the peripheral blood were determined to have a humanized immune system (Hu-CD34-NSG™) mice and were enrolled into the study. The Hu-CD34-NSG mice were implanted with TM00098 patient-derived xenografts (PDX) subcutaneously on the right flank. The TM00098 PDX cancer cells originate from a primary tumor of a patient suffering from a grade 3 TNBC invasive ductal carcinoma. […] Tumor volume was measured using a digital caliper two times a week for the duration of the study. […] Cell populations was determined by electronic gating (P1=total leukocytes) on the basis of forward versus side scatter. […] The percentage of Tregs of CD45+ cells were calculated. […] Statistical significance (p<0.05) was determined using a Mann-Whitney test.

In data set [2] the test system is immune cells isolated from human blood donors (neutrophils, PBMC, monocytes, CD8+, CD4+, Tregs). The experiment in a line: Viability of isolated immune cells (MTT assay). The class given is cell-based. The settings on record: 24 h, up to 33 μM. The procedure: Viability of neutrophils after treatment with OT-1096 for 24 h was assessed using donated blood from a healthy volunteer (HBsAg, HIV I&II negative), (Blood collection date: 1 Jun. 2017) where neutrophils were isolated using dextran sedimentation followed by hypotonic lysis and final isolation by Histopaque 1077 (Sigma-Aldrich). Viability was assessed using an MTT assay.
Viability of PBMC (peripheral blood mononuclear cells) after treatment with OT-1096 for 24 h was assessed using donated blood from two different donors. Donor-1, a healthy volunteer (HBsAg, HIV I&II negative), (Blood collection date: 1 Jun. 2017). […] Viability was assessed using an MTT assay.
Viability of monocytes after treatment with OT-1096 for 24 h was assessed using donated blood from a healthy volunteer (HBsAg, HIV I&II negative), (Blood collection date: 8 Jun. 2017) where monocytes was isolated by Histopaque 1077 (Sigma-Aldrich) followed by purification with MiniMACS system of ‘Miltenyi Biotec’ using CD14 microbeads (Cat No. 130-050-201). Viability was assessed using an MTT assay. […]
Viability of CD4+ cells after treatment with OT-1096 for 24 h was assessed using donated blood from a healthy volunteer (HBsAg, HIV I&II negative) where CD4+ cells were isolated by Histopaque 1077 (Sigma-Aldrich) followed by purification with MiniMACS system of ‘Miltenyi Biotec’ using CD4+ T Cell Isolation Reagent (Cat No. 130-096-533). […]
Background: Tetrazolium dyes change colour on reduction, which living cells bring about.

The mark [3] stands for this setting: CellQuanti-Blue, 24, 48 or 72 hours.

Regarding `COc1ccc([N+](=O)[O-])c(S(=O)(=O)c2ccc(Cl)cc2)n1` [OT-1000, 2-((4-Chlorophenyl)sulfonyl)-6-methoxy-3-nitropyridine], the “sensitivity of MDA-MB-453 cells over time of exposure” value in the data set with MDA-MB-453 cells (24, 48, 72 hours (FIG. 2B)) is on record as “increasingly sensitive”. Also, in the data set with MDA-MB-453 cells (setting [3]), the “potency relative to Iniparib in MDA-MB-453 cells” value is “more potent”. For the same molecule, the “sensitivity of MDA-MB-231 cells over time of exposure” value in the data set with MDA-MB-231 cells (24, 48, 72 hours (FIG. 2A)) is listed as “increasingly sensitive”. Moreover, the “potency relative to Iniparib in MDA-MB-231 cells” value in the data set on MDA-MB-231 cells (setting [3]) was found to be 100 fold.
In the case of `CCCCCCCCS(=O)(=O)c1nc(OC)ccc1[N+](=O)[O-]` [OT-1096, 6-methoxy-3-nitro-2-(octylsulfonyl)pyridine], the “levels of tumor infiltrated Tregs (% Tregs of CD45+ cells)” value in data set [1] was “decreased”. For the same molecule, the “cytotoxicity in isolated immune cell populations” value in data set [2] is “No (or low) cytotoxicity”.
